Assay [1] concerns the target T1, human NPY Y5 receptor (Homo sapiens, UniProt Q15761).
T1 construct: expressed in transfected cells
T1 sequence (Q15761 1-445): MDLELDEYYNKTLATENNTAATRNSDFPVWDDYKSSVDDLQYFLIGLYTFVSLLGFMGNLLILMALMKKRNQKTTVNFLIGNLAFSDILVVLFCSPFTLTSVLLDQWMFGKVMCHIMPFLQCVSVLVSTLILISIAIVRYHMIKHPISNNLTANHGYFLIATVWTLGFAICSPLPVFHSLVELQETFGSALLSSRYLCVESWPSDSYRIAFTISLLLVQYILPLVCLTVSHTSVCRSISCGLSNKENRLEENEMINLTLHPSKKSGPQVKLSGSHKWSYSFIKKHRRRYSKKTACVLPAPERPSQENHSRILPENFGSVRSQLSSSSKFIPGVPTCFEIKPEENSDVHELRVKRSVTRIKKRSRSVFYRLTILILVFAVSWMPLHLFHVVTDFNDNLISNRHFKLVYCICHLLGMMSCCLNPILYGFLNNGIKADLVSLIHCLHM
As to the kind of experiment: Affinity for NPY Y5 receptor ([125I] peptide YY binding, CHO cell membranes). As to conditions: inhibition of specific [125I] peptide YY binding, membranes of CHO cells expressing NPY Y5 receptor. The text has this: Experiment 1 Affinity for NPY Y5 Receptor
cDNA sequence encoding a human NPY Y5 receptor (WO096/16542) was cloned in the expression vector pME18S (Takebe et al. Mol. Cell. Biol. 8, 8957). The obtained expression vector was transfected into a host CHO cells by using a Lipofect AMINE reagent (Trademark, Gibco BRL Co., Ltd.) according to an instruction protocol to obtain the cells that stably express NPY Y5 receptor.
The membranes prepared from the above CHO cells expressing NPY Y5 receptor, the compound of the present invention and 30,000 cpm [^125I] peptide YY (60 pM of final concentration: Amersham) were incubated in the assay buffer (20 mM HEPES-Hanks buffer containing 0.1% bovine serum albumin, pH 7.4) at 25° C. for 2 hours, and then the mixture was filtered with a glassfilter GF/C treated with polyethyleneimine. After the glassfilter was washed with 50 mM Tris-HCl buffer (pH 7.4), the radioactivity on the filter was measured with a gamma counter. The non-specific binding was detected in the presence of 200 nM of peptide YY. The 50% inhibitory concentration of the test compound against the specific peptide YY binding (IC50 value) was calculated (Inui, A. et al. Endocrinology 131, 2090-2096 (1992)).

In assay [2] the target is T1, human NPY Y5 receptor. As to the kind of experiment: cAMP production inhibitory activity in CHO cells. It is filed as cell-based. Conditions: against 50 nM NPY inhibition of forskolin stimulated cAMP, CHO cells expressing human NPY Y5 receptor. The protocol:
Experiment 2 cAMP production inhibitory activity in CHO cells
After CHO cells expressing human NPY Y5 receptor were incubated in the presence of 2.5 mM isobutylmethylxanthine (SIGMA) at 37° C. for 20 min., the compound of the present invention was added and incubated for 5 min. Then, 50 nM NPY and 10 μM forskolin (SIGMA) were added to the cells and incubated for 30 min. After the reaction was terminated by adding 1N HCl, the amount of cAMP in the supernatant was measured with EIA kit (Amersham LIFE SCIENCE).
(Changes in cAMP serve as a functional read-out for many G protein-coupled receptors.)

For the molecule `CCCCc1ccc(C(=O)Nc2ccc(NS(=O)(=O)C(C)C)cc2)cc1` [Compound I-2], the IC50 came out at 7.5 nM on human NPY Y5 receptor [1] and 72 nM at human NPY Y5 receptor [2]. As for `CCCCc1ccc(NC(=O)CCCCNS(=O)(=O)C(C)C)cc1` [Compound I-7], the IC50 was 3 nM at human NPY Y5 receptor [1] and under 10 nM at human NPY Y5 receptor [2].

For the molecule `CCCCc1ccc(NC(=O)CCCCNS(=O)(=O)C(C)(C)C)cc1` [Compound I-11], the concentration for half-maximal inhibition (IC50) was found to be 1.3 nM on human NPY Y5 receptor [1] and 5 nM on human NPY Y5 receptor [2]. Consider `CCCCc1ccc(NC(=O)C2CCC(NS(=O)(=O)C(C)(C)C)CC2)cc1` (stereo not shown) [Compound I-18], for which the figures for the IC50 on human NPY Y5 receptor [1] and at human NPY Y5 receptor [2] were 4.4 nM and 29 nM, respectively. Consider `CCCCc1ccc(C(=O)NCCCCNS(=O)(=O)C(C)(C)C)cc1` [Compound I-20], for which the IC50 at human NPY Y5 receptor [1] is 7 nM; against human NPY Y5 receptor [2] it was 21 nM. As to `CCCCc1ccc(NC(=O)C2CCC(NS(=O)(=O)C(C)(C)C)CC2)cc1` (stereo not shown) [Compound I-22], the IC50 on human NPY Y5 receptor [1] worked out at 8.6 nM; at human NPY Y5 receptor [2] it was 51 nM. With `CCCCc1ccc(NC(=O)C2CCC(CNS(=O)(=O)C(C)(C)C)CC2)cc1` (stereo not shown) [Compound I-24], the IC50 is 9.6 nM on human NPY Y5 receptor [1] and 71 nM at human NPY Y5 receptor [2]. Turning to `CCCCc1ccc(NC(=O)C2CCC(NS(=O)(=O)C(C)(C)C)CC2)cc1` (stereo not shown) [Compound I-25], the IC50 came to 0.6 nM at human NPY Y5 receptor [1] and 2.6 nM at human NPY Y5 receptor [2]. `CCN(CC)c1ccc(NC(=O)C2CCC(NS(=O)(=O)C(C)(C)C)CC2)cc1` (stereo not shown) [Compound I-44]: the IC50 was found to be 1 nM on human NPY Y5 receptor [1] and 13.4 nM on human NPY Y5 receptor [2].

As for `CC(C)(C)S(=O)(=O)NC1CCC(C(=O)Nc2ccc(Oc3ccccc3)cc2)CC1` (stereo not shown) [Compound I-50], the values for the IC50 at human NPY Y5 receptor [1] and on human NPY Y5 receptor [2] were 0.3 nM and 8.4 nM, respectively. The like results for `CC(C)(C)S(=O)(=O)NC1CCC(C(=O)Nc2ccc(N3CCN(c4ccccc4)CC3)cc2)CC1` (stereo not shown) [Compound I-53] were, in that order, 4.1 nM and 21 nM. The like results for `CC(C)(C)S(=O)(=O)NC1CCC(C(=O)Nc2ccc(N3CCN(c4ncccn4)CC3)cc2)CC1` (stereo not shown) [Compound I-55] were, in that order, 9 nM and 40 nM. Turning to `CCOC(=O)C1CCN(c2ccc(NC(=O)C3CCC(NS(=O)(=O)C(C)(C)C)CC3)cc2)CC1` (stereo not shown) [Compound I-57], the IC50 on human NPY Y5 receptor [1] came to 4.8 nM; against human NPY Y5 receptor [2] it was 47 nM. `CC(C)(C)S(=O)(=O)NC1CCC(C(=O)Nc2ccc(N3CCc4ccccc4C3)cc2)CC1` (stereo not shown) [Compound I-60]: the IC50 at human NPY Y5 receptor [1] is 0.69 nM; against human NPY Y5 receptor [2], 18 nM.

`CC(C)(C)S(=O)(=O)NC1CCC(C(=O)Nc2ccc(-n3cnc(Cl)c3Cl)cc2)CC1` (stereo not shown) [Compound I-62]: the IC50 on human NPY Y5 receptor [1] stood at 0.58 nM; at human NPY Y5 receptor [2], 16 nM.

For the molecule `CC(C)(C)S(=O)(=O)NC1CCC(C(=O)Nc2ccc(-c3ccc(N4CCCCC4)cc3)cc2)CC1` (stereo not shown) [Compound I-65], the IC50 at human NPY Y5 receptor [1] amounted to 1.8 nM; on human NPY Y5 receptor [2], 72 nM. On to `CC(=O)Nc1cccc(NC(=O)C2CCC(NS(=O)(=O)C(C)(C)C)CC2)c1` (stereo not shown) [Compound I-67], for which the IC50 at human NPY Y5 receptor [1] turned out to be 2 nM; on human NPY Y5 receptor [2] it was 17 nM. Regarding `CC(C)(C)S(=O)(=O)NC1CCC(C(=O)Nc2ccc(N3CCc4ccccc43)cc2)CC1` (stereo not shown) [Compound I-75], the results for the IC50 on human NPY Y5 receptor [1] and against human NPY Y5 receptor [2] were 0.55 nM and 3.4 nM, respectively. The like results for `CC(C)(C)S(=O)(=O)NC1CCC(C(=O)Nc2ccc(-n3ccc4ccccc43)cc2)CC1` (stereo not shown) [Compound I-76] were, in that order, 0.61 nM and 5.5 nM. The like results for `CC(C)(C)S(=O)(=O)NC1CCC(C(=O)Nc2ccc(-n3cccn3)cc2)CC1` (stereo not shown) [Compound I-77] were, in that order, 1.8 nM and 28 nM. As to `CC(C)(C)S(=O)(=O)NC1CCC(C(=O)Nc2ccc(-c3csnn3)cc2)CC1` (stereo not shown) [Compound I-79], the IC50 at human NPY Y5 receptor [1] was 0.59 nM; at human NPY Y5 receptor [2] it was 25 nM. With `CC(C)(C)S(=O)(=O)NC1CCC(C(=O)Nc2ccc(Nc3ccccc3)cc2)CC1` (stereo not shown) [Compound I-83], the results for the IC50 at human NPY Y5 receptor [1] and against human NPY Y5 receptor [2] were 0.61 nM and 29 nM, respectively. Consider `CC(C)(C)S(=O)(=O)NC1CCC(C(=O)Nc2ccc(-n3ncnn3)cc2)CC1` (stereo not shown) [Compound I-84], for which the IC50 was 1.3 nM on human NPY Y5 receptor [1] and 25 nM on human NPY Y5 receptor [2]. As to `CC(C)(C)S(=O)(=O)NC1CCC(C(=O)Nc2ccc(-c3ccc(-c4ccccc4)cc3)cc2)CC1` (stereo not shown) [Compound I-136], the IC50 on human NPY Y5 receptor [1] is 2.8 nM. As for `COc1ccc(Cl)cc1NC(=O)C1CCC(NS(=O)(=O)C(C)(C)C)CC1` (stereo not shown) [Ia-35], the IC50 on human NPY Y5 receptor [1] came to 1.8 nM. Against the preceding molecule, the IC50 is about 1.6-fold lower. In turn, `CC(C)S(=O)(=O)N[C@H]1CC[C@H](C(=O)Nc2ccc3oc(=O)ccc3c2)CC1` [Ia-76] showed an IC50 on human NPY Y5 receptor [1] of 2.2 nM. This IC50 and that of the molecule before are within 1.5-fold of each other.

The molecule `CC(C)(C)S(=O)(=O)N[C@H]1CC[C@H](C(=O)Nc2ccc3c(c2)C(=O)N(c2ccccc2)C3=O)CC1` [Ia-79] registered an IC50 on human NPY Y5 receptor [1] of 0.82 nM. This IC50 lies about 2.7-fold lower than the previous one.

At human NPY Y5 receptor [1], `CC(C)S(=O)(=O)NC1CCC(C(=O)Nc2ccc(-c3ncco3)cc2)CC1` (stereo not shown) [Ia-184] showed an IC50 of 0.38 nM. With `CC(C)(C)S(=O)(=O)NC1CCC(C(=O)Nc2cccc(-c3ccco3)c2)CC1` (stereo not shown) [Ia-209], the IC50 on human NPY Y5 receptor [1] came out at 0.55 nM.

The molecule `Cc1cc(=O)oc2cc(NC(=O)[C@H]3CC[C@H](NS(=O)(=O)C(C)C)CC3)ccc12` [Ia-227] registered an IC50 at human NPY Y5 receptor [1] of 0.59 nM. Take `Cc1cc(=O)oc2cc(NC(=O)CCCCNS(=O)(=O)C(C)(C)C)ccc12` [Ia-228]: the IC50 on human NPY Y5 receptor [1] was found to be 0.96 nM. At human NPY Y5 receptor [1], `Cc1cc(=O)oc2cc(NC(=O)CCCCNS(=O)(=O)C(C)C)ccc12` [Ia-229] came in with an IC50 of 1.9 nM. `CC(C)CN1C(=O)c2ccc(NC(=O)[C@H]3CC[C@H](NS(=O)(=O)C(C)(C)C)CC3)cc2C1=O` [Ia-230] had an IC50 on human NPY Y5 receptor [1] of 0.32 nM. Against the preceding molecule, the IC50 is about 5.9-fold lower. Still for that read-out and setting: the figure for `CC(C)CN1C(=O)c2ccc(NC(=O)[C@H]3CC[C@H](NS(=O)(=O)C(C)C)CC3)cc2C1=O` [Ia-231] is 0.29 nM; for `CC(C)CN1C(=O)c2ccc(NC(=O)CCCCNS(=O)(=O)C(C)(C)C)cc2C1=O` [Ia-232] it is 0.7 nM; for `CC(C)CN1C(=O)c2ccc(NC(=O)CCCCNS(=O)(=O)C(C)C)cc2C1=O` [Ia-233] it is 0.63 nM. For `CC(C)(C)S(=O)(=O)NC1CCC(C(=O)Nc2nc3ccccc3s2)CC1` (stereo not shown) [Ia-235], at human NPY Y5 receptor [1], the IC50 turned out to be 5.5 nM. On the same count and under the same terms, the figure for `CC(C)(C)S(=O)(=O)NC1CCN(C(=O)Nc2ccc(C(F)(F)F)cn2)CC1` [Ia-241] is 1.9 nM; for `Cc1cc(C(=O)NC(C)C)ccc1NC(=O)N1CCC(NS(=O)(=O)C(C)(C)C)CC1` [Ia-243] it is 1.3 nM. For `CC(C)(C)S(=O)(=O)NC1CCC(C(=O)Nc2ccc3occc3c2)CC1` (stereo not shown) [Ia-250], the IC50 on human NPY Y5 receptor [1] came out at 1.9 nM.

On human NPY Y5 receptor [1], `CC(C)S(=O)(=O)NC1CCC(C(=O)Nc2ccc(OC(C)(C)C)cc2)CC1` (stereo not shown) [Ia-252] had an IC50 of 1.2 nM. `CC(C)(C)Oc1ccc(NC(=O)CCCCNS(=O)(=O)C(C)(C)C)cc1` [Ia-253] came in with an IC50 at human NPY Y5 receptor [1] of 0.53 nM. Take `CC(C)(C)Oc1ccc(NC(=O)N2CCC(NS(=O)(=O)C(C)(C)C)CC2)cc1` [Ia-254]: the IC50 at human NPY Y5 receptor [1] turned out to be 2 nM. This IC50 is about 3.8-fold higher than that of the molecule before. `CC(C)(C)S(=O)(=O)NCCCCC(=O)Nc1ccc(N2CCCS2(=O)=O)cc1` [Ia-255]: at human NPY Y5 receptor [1], the IC50 stood at 3.2 nM. In the case of `CC(C)(C)S(=O)(=O)NC1CCN(C(=O)Nc2ccc(N3CCCS3(=O)=O)cc2)CC1` [Ia-256], the IC50 at human NPY Y5 receptor [1] amounted to 5.7 nM. Regarding `CC(C)(C)S(=O)(=O)NCCCCC(=O)Nc1ccc(OC2CCOCC2)cc1` [Ia-257], on human NPY Y5 receptor [1], the IC50 worked out at 8.6 nM. In turn, `CC(C)S(=O)(=O)NC1CCC(C(=O)Nc2ccc(OC3CCOCC3)cc2)CC1` (stereo not shown) [Ia-258] gave an IC50 at human NPY Y5 receptor [1] of 1.8 nM.

As a reminder, the IC50 is the midpoint of a concentration-inhibition curve. A higher IC50 goes with weaker potency.

Values taken from patent publication US7265130B2, “NPY Y5 antagonist” (Shionogi & Co., Ltd., priority 1999, dated 2007).
